Experimental findings from patent US20240343738A1, “Method for preparing pranoprofen and composition comprising pranoprofen and impurity” (SHENYANG XINGQI PHARMACEUTICAL CO., LTD., priority 2021, published 2024) are described below.

This data set is described as follows: Accelerated stability study of pranoprofen batches (impurity content by HPLC). The class given is physicochemical. Particulars: 40° C.±2° C., RH 75%±5%; for Maximum single impurity: maximum unknown single impurity. Here is the method: In the present invention, unless otherwise specified, the accelerated experiment is carried out under the conditions of 40° C.±2° C. and RH75%±5% in accordance with the regulations in the “Technical Guidelines for Stability Research of Chemical Drugs”; preferably, an average value of 3 samples measured in parallel is taken.
In the present invention, unless otherwise specified, the content of each impurity or total impurities is measured by high performance liquid chromatography. Preferably, the chromatographic conditions comprise: using octadecylsilane-bonded silica gel as filler (5 μm, 250 mm×4.6 mm); using 0.05 mol/L sodium perchlorate aqueous solution-methanol (90:10, adding perchloric acid to adjust pH to 3.2) as mobile phase A, methanol as mobile phase B, following the gradient elution in Table 10, flow rate of 1.0 ml/min, column temperature of 40° C., detection wavelength of 275 nm.
In accordance with the relevant regulations in the “Technical Guidelines for Stability Research of Chemical Drugs”, the samples of the above three batches were taken and tested for 6 months under the conditions of 40° C.±2° C. and RH 75%±5%. And at the end of the 0th, 1st, 2nd, 3rd and 6th months of the experiment, the samples were taken for the detection of indicators.
The experiment was carried out according to the high performance liquid chromatography (the General Rule 0512 of the Chinese Pharmacopoeia, 2015 edition), in which octadecylsilane bonded silica gel was used as filler (5 μm, 250 mm×4.6 mm); 0.05 mol/L sodium perchlorate aqueous solution-methanol (90:10, adjusted to pH 3.2 by adding perchloric acid) was used as mobile phase A, methanol was used as mobile phase B, and gradient elution was carried out according to the table below, flow rate was 1.0 ml/min, column temperature was 40° C., and detection wavelength was 275 nm.
10 μl of the test solution was precisely taken and injected into the liquid chromatograph. If there were impurity peaks in the chromatogram of the test solution, a single impurity must not exceed 0.1%, and the sum of impurities must not exceed 0.5%.
The impurity objects to be detected were total impurity, impurity A, impurity C, impurity D, impurity L and maximum single impurity; and the detection conditions were the same as above.
Preparation of test solution: 50 mg of this product was taken, dissolved in a solvent (acetonitrile-water=1:1) and diluted to 50 ml to obtain the test solution.
Control stock solution of mixed impurities: 10.0 mg of each of impurities A, C, D, and L were weighed, respectively, and added to 10.0 ml volumetric flask, respectively, then added with methanol for dissolution and dilution to the mark, 1.0 ml of each of the above solutions was taken and added to 100.0 ml volumetric flask, then added with solvent for dilution to the mark to obtain the control stock solution of impurities.
Control solution of mixed impurities: 1.0 ml of the test solution was accurately taken, and added with solvent for dilution to 100.0 ml; 1.0 ml of the above solution was accurately taken, added with 1.0 ml of the control stock solution of mixed impurities, and added with solvent to 10.0 ml to obtain the control solution of mixed impurities.
Preparation of system suitability solution: 1.0 ml of the control stock solution of mixed impurities was accurately taken, and added with the test solution for dilution to 10 ml to obtain the system suitability solution.
Preparation of control solution: 1.0 ml of the test solution was taken, and added with solvent for dilution to 10.0 ml; 1.0 ml of the above solution was taken, and added with solvent for dilution to 100.0 ml to obtain the control solution.

As to `CC(C(=O)O)c1ccc2c(c1)Cc1cccnc1O2` (stereo not drawn) [Compound 20190101, pranoprofen], where the note is “0th month”, the “Impurity A” value was “Impurity A: 0.05%”, the “Impurity D” value was “Impurity D: 0.02%”, the “Impurity L” value is recorded as “Impurity L: 0.02%” and the Total impurities result was “Total impurities: 0.09%”. Besides, for the setting “1st month after acceleration”, the “Impurity A” value was “Impurity A: 0.03%”, the “Impurity D” value is given as “Impurity D: 0.02%”, the “Impurity L” value is “Impurity L: 0.01%” and the Total impurities result is listed as “Total impurities: 0.06%”. For the same compound, under “2nd month after acceleration”, the “Impurity A” value is listed as “Impurity A: 0.04%”, the “Impurity D” value is recorded as “Impurity D: 0.02%”, the “Impurity L” value is “Impurity L: 0.01%” and the Total impurities entry is “Total impurities: 0.07%”. For the same compound, where the note is “3rd month after acceleration”, the “Impurity A” value is “Impurity A: 0.06%”, the “Impurity D” value was “Impurity D: 0.01%”, the “Impurity L” value is “Impurity L: 0.02%” and the Total impurities entry was “Total impurities: 0.08%”. Further, under “6th month after acceleration”, the “Impurity A” value was “Impurity A: 0.06%”, the “Impurity C” value was “Impurity C 0.03%”, the “Impurity D” value is reported as “Impurity D: 0.02%” and the “Impurity L” value was “Impurity L: 0.02%”. Further, where the note is “6th month after acceleration”, the Total impurities entry was “Total impurities: 0.17%” and the Maximum single impurity result was “impurity: 0.02%”.
Take `CC(C(=O)O)c1ccc2c(c1)Cc1cccnc1O2` (stereo not drawn) [Compound 20190201, pranoprofen]: where the note is “0th month”, the “Impurity A” value is “Impurity A: 0.07%”, the “Impurity D” value is recorded as “Impurity D: 0.02%”, the “Impurity L” value is “Impurity L: 0.01%” and the Total impurities result is recorded as “Total impurities: 0.10%”. Also, where the note is “1st month after acceleration”, the “Impurity A” value was “Impurity A: 0.07%”, the “Impurity D” value is reported as “Impurity D: 0.03%”, the “Impurity L” value is “Impurity L: 0.01%” and the Total impurities result was “Total impurities: 0.11%”. For the setting “2nd month after acceleration”, the “Impurity A” value is “Impurity A: 0.07%”, the “Impurity D” value is “Impurity D: 0.02%”, the “Impurity L” value was “Impurity L: 0.01%” and the Total impurities result is recorded as “Total impurities: 0.10%”. In addition, for the setting “3rd month after acceleration”, the “Impurity A” value is “Impurity A: 0.07%”, the “Impurity D” value is recorded as “Impurity D: 0.02%”, the “Impurity L” value was “Impurity L: 0.02%” and the Total impurities result was “Total impurities: 0.11%”. Besides, for the setting “6th month after acceleration”, the “Impurity A” value was “Impurity A: 0.10%”, the “Impurity C” value is reported as “Impurity C 0.03%”, the “Impurity D” value is listed as “Impurity D: 0.01%” and the “Impurity L” value is recorded as “Impurity L: 0.02%”. Also, under “6th month after acceleration”, the Total impurities entry is reported as “Total impurities: 0.24%” and the Maximum single impurity entry was “impurity: 0.08%”.
Regarding `CC(C(=O)O)c1ccc2c(c1)Cc1cccnc1O2` (stereo not drawn) [Compound 20190202, pranoprofen], where the note is “0th month”, the “Impurity A” value is reported as “Impurity A: 0.02%”, the “Impurity D” value is reported as “Impurity D: 0.02%”, the “Impurity L” value is listed as “Impurity L: 0.01%” and the Total impurities result is given as “Total impurities: 0.05%”. Moreover, for the setting “1st month after acceleration”, the “Impurity A” value is listed as “Impurity A: 0.05%”, the “Impurity D” value was “Impurity D: 0.01%”, the “Impurity L” value was “Impurity L: 0.02%” and the Total impurities result is reported as “Total impurities: 0.06%”. Where the note is “2nd month after acceleration”, the “Impurity A” value is reported as “Impurity A: 0.04%”, the “Impurity D” value was “Impurity D: 0.02%”, the “Impurity L” value is “Impurity L: 0.01%” and the Total impurities entry is on record as “Total impurities: 0.07%”. In addition, for the setting “3rd month after acceleration”, the “Impurity A” value is listed as “Impurity A: 0.04%”, the “Impurity D” value is on record as “Impurity D: 0.02%”, the “Impurity L” value is “Impurity L: 0.01%” and the Total impurities entry is on record as “Total impurities: 0.07%”. Where the note is “6th month after acceleration”, the “Impurity A” value is recorded as “Impurity A: 0.09%”, the “Impurity C” value is recorded as “Impurity C 0.01%”, the “Impurity D” value is on record as “Impurity D: 0.01%” and the “Impurity L” value was “Impurity L: 0.02%”. For the setting “6th month after acceleration”, the Total impurities entry was “Total impurities: 0.15%” and the Maximum single impurity entry is “impurity: 0.02%”.
